Reference: ChEMBL document CHEMBL1146484, “Current developments in the discovery and design of new drug candidates from plant natural product leads” (J Nat Prod, 2004)
≈ marks a conversion by molar mass, not a printed value. Calls of active or inactive are those of the source. The rule behind the calls is not given here.

Assays:
[1] = tested on: Human immunodeficiency virus; test: Antiviral activity against HIV; type: functional, organism-based; conditions: Human immunodeficiency virus 1
[2] = Inhibition of tubulin polymerization
[3] = target: DNA topoisomerase 2-alpha (Homo sapiens) (UniProt P11388); test: Inhibition of human DNA topoisomerase 2 assessed as DNA cleavage at 20 uM
[4] = target: DNA topoisomerase 2-alpha (Homo sapiens) (UniProt P11388); test: Inhibition of human DNA topoisomerase 2
[5] = tested on: Mus musculus; test: Toxicity in ip dosed nude mouse; type: organism-based; conditions: in vivo
[6] = Cytotoxicity against human NCI60 cells; type: functional; conditions: for TGI: read-out: pGI100 (converted)
[7] = tested on: CAKI-1; test: Cytotoxicity against human Caki1 cells; type: functional; conditions: read-out: ED50 (the source's name)
[8] = target: DNA topoisomerase 2-alpha (Homo sapiens) (UniProt P11388); test: Inhibition of topoisomerase 2
[9] = tested on: MCF7; test: Cytotoxicity against human MCF7 cells; type: functional; conditions: for EC50: read-out: ED50 (the source's name)
[10] = tested on: A549; test: Cytotoxicity against human A549 cells; type: functional; conditions: read-out: ED50 (the source's name)
[11] = tested on: SK-MEL-2; test: Cytotoxicity against human SK-MEL-2 cells; type: functional; conditions: read-out: ED50 (the source's name)
[12] = tested on: HCT-8; test: Cytotoxicity against human HCT8 cells; type: functional; conditions: read-out: ED50 (the source's name)
[13] = tested on: KB; test: Cytotoxicity against human KB cells; type: functional; conditions: for EC50: read-out: ED50 (the source's name); for IC50: read-out: ID50 (the source's name); for CC50: read-out: LD50 (the source's name)
[14] = Cytotoxicity against human renal cancer cells; type: functional; conditions: Cancer cell lines
[15] = Cytotoxicity against human melanoma cells; type: functional; conditions: Melanoma cell
[16] = tested on: MOLT-4; test: Cytotoxicity against human MOLT4 cells; type: functional
[17] = tested on: RPMI-7951; test: Cytotoxicity against human RPMI7951 cells; type: functional; conditions: read-out: ED50 (the source's name)

Chain of DNA topoisomerase 2-alpha (Homo sapiens) (P11388 whole entry): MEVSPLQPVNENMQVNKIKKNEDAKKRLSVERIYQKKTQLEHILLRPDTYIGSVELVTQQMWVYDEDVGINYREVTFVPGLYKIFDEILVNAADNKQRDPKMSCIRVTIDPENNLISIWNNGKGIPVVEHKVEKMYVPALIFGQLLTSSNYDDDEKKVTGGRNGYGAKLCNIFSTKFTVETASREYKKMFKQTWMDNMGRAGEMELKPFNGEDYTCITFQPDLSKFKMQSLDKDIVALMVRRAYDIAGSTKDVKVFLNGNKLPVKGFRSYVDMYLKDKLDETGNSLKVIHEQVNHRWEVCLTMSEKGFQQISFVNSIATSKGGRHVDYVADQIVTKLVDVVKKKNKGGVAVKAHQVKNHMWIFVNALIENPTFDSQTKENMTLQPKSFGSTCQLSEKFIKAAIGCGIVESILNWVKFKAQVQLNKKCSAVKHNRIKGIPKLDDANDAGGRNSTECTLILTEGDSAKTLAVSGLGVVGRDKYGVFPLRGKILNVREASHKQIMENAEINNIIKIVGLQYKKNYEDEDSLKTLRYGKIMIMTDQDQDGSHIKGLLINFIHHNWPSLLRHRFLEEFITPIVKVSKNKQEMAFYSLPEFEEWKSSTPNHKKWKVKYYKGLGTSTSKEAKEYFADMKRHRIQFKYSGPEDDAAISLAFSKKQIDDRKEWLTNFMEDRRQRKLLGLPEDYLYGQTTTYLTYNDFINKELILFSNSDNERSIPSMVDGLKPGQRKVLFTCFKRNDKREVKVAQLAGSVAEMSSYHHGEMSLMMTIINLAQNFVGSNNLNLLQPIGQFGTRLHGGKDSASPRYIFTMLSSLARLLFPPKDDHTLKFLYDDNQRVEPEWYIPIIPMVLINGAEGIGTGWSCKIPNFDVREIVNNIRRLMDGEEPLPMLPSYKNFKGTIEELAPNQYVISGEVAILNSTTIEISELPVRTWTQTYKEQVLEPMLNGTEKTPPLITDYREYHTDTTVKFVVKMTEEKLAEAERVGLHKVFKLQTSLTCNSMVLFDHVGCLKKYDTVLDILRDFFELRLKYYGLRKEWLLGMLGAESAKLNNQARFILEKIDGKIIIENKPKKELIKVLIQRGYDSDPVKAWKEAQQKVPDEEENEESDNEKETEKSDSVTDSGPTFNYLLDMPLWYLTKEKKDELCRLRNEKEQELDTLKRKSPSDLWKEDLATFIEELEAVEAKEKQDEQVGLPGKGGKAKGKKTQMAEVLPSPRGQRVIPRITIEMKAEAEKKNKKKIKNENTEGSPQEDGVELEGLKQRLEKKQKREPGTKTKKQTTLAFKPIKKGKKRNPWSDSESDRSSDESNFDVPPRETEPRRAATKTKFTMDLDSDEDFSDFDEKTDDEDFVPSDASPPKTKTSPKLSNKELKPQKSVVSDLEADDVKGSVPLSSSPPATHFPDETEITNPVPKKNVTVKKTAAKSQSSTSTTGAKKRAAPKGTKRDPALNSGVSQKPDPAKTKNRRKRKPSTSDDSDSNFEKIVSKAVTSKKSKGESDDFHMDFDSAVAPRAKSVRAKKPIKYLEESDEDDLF

Which EC50 [1] does the source give for CC1(C)Oc2ccc3ccc(=O)oc3c2[C@@H](OC(=O)C23CCC(C)(C(=O)O2)C3(C)C)[C@H]1OC(=O)C12CCC(C)(C(=O)O1)C2(C)C (stereo partly drawn) here?
The EC50 was 0.4 nM.

For COc1cc2c(c(OC)c1OC)-c1ccc(SC)c(=O)cc1[C@@H](O)CC2, which IC50 [2] is on record?
The IC50 was 560 nM.

With COc1c2c(cc3c1-c1c(cc4c(c1OC)OCO4)[C@H](OC(=O)c1ccccc1)[C@@](C)(O)[C@@H](C)C3)OCO2 [SCHISANTHERIN D] as the compound, how does the EC50 [1] read?
Its EC50 is 0.5 µg/mL.

With COc1cc([C@@H]2c3cc4c(cc3[C@@H](Nc3ccc(F)cc3)[C@H]3COC(=O)[C@H]23)OCO4)cc(OC)c1O as the compound, how does the inhibition [3] read?
The inhibition was 139%.

And the ID50 [4]?
Its ID50 is 50000 nM.

For CC[C@@]1(O)C(=O)OCc2c1cc1n(c2=O)Cc2c-1nc1ccccc1c2/C=N/c1ccccc1N[C@@H]1c2cc3c(cc2[C@@H](c2cc(OC)c(O)c(OC)c2)[C@H]2C(=O)OC[C@@H]21)OCO3, which LD50 [5] is on record?
The LD50 was over 50 mg/kg/day.

Which IC50 [2] does the source give for COc1cc2c(c(OC)c1OC)-c1ccc(SC)c(=O)cc1[C@@H](OC(C)=O)CC2 here?
Its IC50 is 560 nM.

With COc1cc2c(c(OC)c1OC)-c1c(cc3c(c1OC)OCO3)[C@H](OC(=O)c1ccccc1)[C@@](C)(O)[C@@H](C)C2 [GOMISIN G] as the compound, how does the EC50 [1] read?
Its EC50 is 0.006 µg/mL.

For Cc1cc(=O)oc2c3c(ccc12)OC(C)(C)[C@H](OC(=O)C12CCC(C)(C(=O)O1)C2(C)C)[C@@H]3OC(=O)C12CCC(C)(C(=O)O1)C2(C)C (stereo partly drawn), which EC50 [1] is on record?
Its EC50 is 0.00016 nM.

For COc1c2c(cc3c1-c1c(cc4c(c1OC)OCO4)C[C@H](C)[C@H](C)C3)OCO2 [SCHISANDRIN C], which EC50 [1] is on record?
Its EC50 is 1.2 µg/mL.

Which GI50 [6] does the source give for Cc1ccc2c(=O)cc(-c3cccc(F)c3)[nH]c2n1 here?
Its GI50 is 269 nM.

And the TGI [6]?
The TGI was 72400 nM.

Which results are given for COc1cc([C@@H]2c3cc4c(cc3[C@@H](Nc3ccccc3)[C@H]3COC(=O)[C@H]23)OCO4)cc(OC)c1O?
inhibition [3]: 125%; ID50 [4]: 50000 nM

With COc1cccc(-c2cc(=O)c3ccc(C)nc3[nH]2)c1 as the compound, how does the GI50 [6] read?
Its GI50 is 269 nM.

And the TGI [6]?
Its TGI is 72400 nM.

With CC(=O)N[C@H]1CCc2cc(O)c(O)c(O)c2-c2ccc(NC(=O)c3ccc(Cl)cc3)c(=O)cc21 as the compound, how does the EC50 [7] read?
The EC50 was 0.98 µg/mL (≈ 2.04 µM).

And the Activity [8]?
Its Activity is “Active”.

What about the EC50 [9] of the same compound?
The EC50 was 0.48 µg/mL (≈ 0.998 µM).

Which IC50 [2] does the source give for COc1cc2c(c(OC)c1OC)-c1ccc(SC)c(=O)cc1[C@@H](OC(=O)c1ccncc1)CC2 here?
Its IC50 is 560 nM.

Which results are given for COc1cccc([C@@H]2CC(=O)c3cc(N4CCCC4)ccc3N2)c1?
EC50 [10]: 0.008 µg/mL (≈ 0.0248 µM); EC50 [11]: 0.008 µg/mL (≈ 0.0248 µM); EC50 [7]: 0.008 µg/mL (≈ 0.0248 µM); EC50 [12]: 0.008 µg/mL (≈ 0.0248 µM); EC50 [13]: 0.008 µg/mL (≈ 0.0248 µM); EC50 [9]: 0.008 µg/mL (≈ 0.0248 µM)

For C=C(C)[C@@H]1CC[C@]2(C(=O)O)CC[C@]3(C)[C@H](CC[C@@H]4[C@@]5(C)CC[C@H](OC(=O)CC(C)(C)C(=O)O)C(C)(C)[C@@H]5CC[C@]43C)[C@@H]12 [BEVIRIMAT], which EC50 [1] is on record?
The EC50 was under 0.35 nM.

For COc1cc2c(c(OC)c1OC)-c1ccc(OC)c(=O)cc1[C@@H](NC(C)=O)CC2 [COLCHICINE], which IC50 [2] is on record?
The IC50 was 650 nM.

With COc1cc2c(c(OC)c1OC)-c1c(cc3c(c1OC)OCO3)C[C@@H](C)[C@@H](C)C2 [KADSURANIN] as the compound, how does the EC50 [1] read?
Its EC50 is 0.8 µg/mL.

Which results are given for COc1cc([C@@H]2c3cc4c(cc3[C@@H](O[C@@H]3O[C@@H]5CO[C@@H](C)O[C@H]5[C@H](O)[C@H]3O)[C@H]3COC(=O)[C@H]23)OCO4)cc(OC)c1O [ETOPOSIDE]?
IC100 [8]: 100 µM; IC50 [13]: 200 nM; CC50 [13]: 3000 nM

For CC1(C)C=C2[C@H]3CC[C@@H]4[C@@]5(C)CCC(=O)C(C)(C)[C@@H]5CC[C@@]4(C)[C@]3(C)CC[C@@]2(C(=O)O)CC1 [MORONIC ACID], which EC50 [1] is on record?
Its EC50 is under 0.1 µg/mL.

With CC1(C)CC[C@]2(C(=O)O)CC[C@]3(C)C(=CC[C@@H]4[C@@]5(C)CC[C@H](O)C(C)(C)[C@@H]5CC[C@]43C)[C@@H]2C1 [OLEANOLIC_ACID] as the compound, how does the EC50 [1] read?
The EC50 was 1.7 µg/mL.

For COc1cc2c(c(OC)c1OC)-c1ccc(SC)c(=O)cc1C(=O)CC2 [THIOCOLCHICONE], which IC50 [2] is on record?
Its IC50 is 560 nM.

For Cc1cnc2[nH]c(-c3cccc(Cl)c3)cc(=O)c2c1, which GI50 [6] is on record?
The GI50 was 269 nM.

And the TGI [6]?
Its TGI is 72400 nM.

With O=c1cc(-c2ccccc2F)[nH]c2ccc(N3CCCC3)cc12 as the compound, how does the GI50 [14] read?
The GI50 was 22.4 nM.

What about the GI50 [15] of the same compound?
Its GI50 is at most 10 nM.

Which EC50 [7] does the source give for CNc1ccc2c(cc1=O)[C@@H](NC(C)=O)CCc1cc(O)c(O)c(O)c1-2 here?
Its EC50 is 0.72 µg/mL (≈ 2.02 µM).

And the Activity [8]?
Its Activity is “Active”.

What about the EC50 [9] of the same compound?
Its EC50 is 0.36 µg/mL (≈ 1.01 µM).

Which results are given for COc1cc([C@@H]2c3cc4c(cc3[C@@H](Nc3ccc(NC(=O)c5cc([N+](=O)[O-])cn5C)cc3)[C@H]3COC(=O)[C@H]23)OCO4)cc(OC)c1O?
GI50 [16]: < 10 nM; IC100 [8]: 12.5 µM; IC50 [13]: 40 nM; CC50 [13]: 150 nM; GI50 [9]: < 10 nM

Which results are given for Cc1cnc2[nH]c(-c3cccc(F)c3)cc(=O)c2c1?
GI50 [6]: 269 nM; TGI [6]: 72400 nM

Which EC50 [13] does the source give for COC(=O)[C@@]12OC[C@]34[C@H](OC(=O)C[C@@H]13)[C@H](OC(=O)C=C(C)C)[C@H]1C(C)=C(O[C@@H]3O[C@H](CO)[C@@H](O)[C@H](O)[C@H]3O)C(=O)C[C@]1(C)[C@H]4[C@@H](O)[C@@H]2O [BRUCEOSIDE C] here?
The EC50 was under 0.1 µg/mL.

What about the EC50 [17] of the same compound?
The EC50 was under 0.1 µg/mL.

For CC(=O)O[C@@H]1[C@H](OC(=O)CC(C)C)c2c(ccc3ccc(=O)oc23)OC1(C)C [SUKSDORFIN], which EC50 [1] is on record?
Its EC50 is 1300 nM.

Which EC50 [1] does the source give for CC1(C)CC[C@]2(C(=O)O)CC[C@]3(C)C(=CC[C@@H]4[C@@]5(C)CC[C@H](OC(=O)CC(C)(C)C(=O)O)C(C)(C)[C@@H]5CC[C@]43C)[C@H]2C1 here?
The EC50 was 0.0039 µg/mL.
